Assay results: patent US20060008542A1, “Preparation containing a mixture of picrorrhiza and ginkgo for the relief of disease” (priority 2002, published 2006)

system: neutrophil respiratory burst (PMA-stimulated neutrophils of peripheral blood); assay: Dihydrorhodamine flow cytometric assay for the effect of plant extracts on neutrophil respiratory burst on peripheral blood; type: cell-based, human; settings: Homo sapiens, Neutrophil; apocynin 300 ug/ml, from calibration curve
Method: 3 Dihydrorhodamine Flow Cytometric Assay for the Effect of Plant Extracts on Neutrophil Respiratory Burst on Peripheral Blood An aliquot (200 μg) of every fraction (obtained by the methods described above) was prepared for assay. The left hand column (Extract number) will be the number used to denote that fraction in subsequent studies and corresponds to the Fraction numbers (“BR0000n”) used above reduced to 1,2, etc., by removal of the “BR00000”. Neutrophils kill organisms they have ingested by exposing them to chemicals known as reactive oxygen species (eg. hydrogen peroxide and hydroxyl ions). These are generated by a process known as the neutrophil respiratory burst. […] Respiratory burst occurs when stimulated neutrophils convert molecular oxygen to oxygen radicals through the activation of NADPH-oxidase. In the dihydrorhodamine (DHR) flow cytometric assay, the respiratory burst is used to produce fluorescent molecules that can be detected by flow cytometry. […] The extent of respiratory burst product can be further quantified using the mean fluorescence intensity of the FL-1 channel (MFI). […] Any background fluorescence (as a further control) is estimated using a tube containing only blood and DHR. […]

| Structure (SMILES) | inhibition at 300 µg/mL [%] |
| --- | --- |
| COc1cc(C(C)=O)ccc1O [Apocynin, 4-hydroxy-3-methoxyacetophenone] | 45 |

same assay, conditions: Table 4, apocynin alone

| Structure (SMILES) | Assay Result |
| --- | --- |
| COc1cc(C(C)=O)ccc1O [Apocynin, 4-hydroxy-3-methoxyacetophenone] | 48 |

system: not listed separately; assay: physchem; settings: not given

| Structure (SMILES) | logP |
| --- | --- |
| CCCCCCCCCCCCCCCCCC(O)CCCCCCCCC (centres unmarked) [10-heptacosanol] | ≥ 5 |
| CCCCCCCCCCCCCCCCCCCC(O)CCCCCCCCC (centres unmarked) [10-nonacosanol] | ≥ 5 |
| CCCCCCCCCCCCCCCCC(O)CCCCCCCCCCCC (centres unmarked) [13-nonacosanol] | ≥ 5 |
| COc1cc(C(C)=O)ccc1O [Apocynin, 4-hydroxy-3-methoxyacetophenone] | 1.6 |
| O=c1cc(-c2ccc(O)c(-c3c(O)cc(O)c4c(=O)cc(-c5ccc(O)cc5)oc34)c2)oc2cc(O)cc(O)c12 [amentoflavone] | ≥ 5 |
| COc1cc(C(C)=O)ccc1O[C@@H]1O[C@H](CO)[C@@H](O)[C@H](O)[C@H]1O [androsin] | -1.2 |
| OCC1=C[C@@H](O)[C@@H]2C=CO[C@@H](O[C@@H]3O[C@H](CO)[C@@H](O)[C@H](O)[C@H]3O)[C@H]12 [aucubin] | ≤ -2 |
| COc1ccc(-c2cc(=O)c3c(O)cc(O)cc3o2)cc1-c1c(O)cc(O)c2c(=O)cc(-c3ccc(O)cc3)oc12 [bilobetin] | ≥ 5 |
| OC[C@H]1O[C@@H](O[C@@H]2OC=C[C@H]3[C@H](O)[C@@H]4O[C@]4(CO)[C@@H]23)[C@H](O)[C@@H](O)[C@@H]1O [catalpol] | ≤ -2 |
| COc1cc(O)c2c(=O)cc(-c3ccc(OC)c(-c4c(O)cc(O)c5c(=O)cc(-c6ccc(O)cc6)oc45)c3)oc2c1 [ginkgetin] | ≥ 5 |
| COc1ccc(-c2cc(=O)c3c(O)cc(O)c(-c4cc(-c5cc(=O)c6c(O)cc(O)cc6o5)ccc4OC)c3o2)cc1 [isoginkgetin] | ≥ 5 |
| CCCCCCCCCCCCCCCCCCCCCCCCCCCCC [nonacosane] | ≥ 5 |
| CC[C@H](/C=C/[C@@H](C)[C@H]1CC[C@H]2[C@@H]3CC=C4C[C@@H](O)CC[C@]4(C)[C@H]3CC[C@]12C)C(C)C [stigmasterol] | ≥ 5 |
| CCCCCCCCCCCCCCCC(=O)OCC(COC(=O)CCCCCCCCCCCCCCC)OC(=O)CCCCCCCCCCCCCCC [tripalmitin] | ≥ 5 |
| O=C(/C=C/c1ccc(O)c(O)c1)O[C@H]1[C@@H]2C=CO[C@@H](O[C@@H]3O[C@H](CO)[C@@H](O)[C@H](O)[C@H]3O)[C@@H]2[C@@]2(CO)O[C@@H]12 [verminoside] | ≤ -2 |

system: not listed separately; assay: log P (Partition Ratio between Octanol/Water); settings: cucurbitacins present in natural Picrorrhiza kurroa
Excerpt: By most polar is meant a component (or Component) having log P of −2 or more negative, where P is the Partition Ratio between Octanol/Water.
The Table immediately below lists the cucurbitacins present in natural Picrorrhiza kurroa together with their log P value.

| Structure (SMILES) | log P |
| --- | --- |
| CC(=O)OC(C)(C)/C=C/C(=O)[C@](C)(O)[C@H]1[C@H](O)C[C@@]2(C)[C@@H]3CC=C4[C@H](C[C@H](O)C(=O)C4(C)C)[C@]3(C)C(=O)C[C@]12C [cucurbitacin B] | 2.5 ± 0.6 |
| CC(C)(O)/C=C/C(=O)[C@](C)(O)[C@H]1[C@H](O)C[C@@]2(C)[C@@H]3CC=C4[C@@H](C[C@H](O)C(=O)C4(C)C)[C@]3(C)C(=O)C[C@]12C [cucurbitacin D] | 1.7 ± 0.6 |
| CC(=O)OC(C)(C)/C=C/C(=O)[C@](C)(O)[C@H]1[C@H](O)C[C@@]2(C)[C@@H]3CC=C4[C@@H](C=C(O)C(=O)C4(C)C)[C@]3(C)C(=O)C[C@]12C [cucurbitacin E] | 3.4 ± 0.6 |
| CC(C)(O)/C=C/C(=O)[C@](C)(O)[C@H]1[C@H](O)C[C@@]2(C)[C@@H]3CC=C4[C@@H](C[C@H](O)[C@@H](O)C4(C)C)[C@]3(C)C(=O)C[C@]12C [cucurbitacin F] | 1.9 ± 0.6 |
| CC(C)(O)/C=C/C(=O)[C@](C)(O)[C@H]1[C@H](O)C[C@@]2(C)[C@@H]3CC=C4[C@@H](C=C(O)C(=O)C4(C)C)[C@]3(C)C(=O)C[C@]12C [cucurbitacin I] | 2.5 ± 0.5 |
| CC(C)(O)CCC(=O)[C@](C)(O)[C@H]1[C@H](O)C[C@@]2(C)[C@@H]3CC=C4[C@@H](C[C@H](O)C(=O)C4(C)C)[C@]3(C)C(=O)C[C@]12C [cucurbitacin R] | 1.9 ± 0.6 |
